Assay results reported in patent publication US5849587A, “Method of inhibiting viral replication in eukaryotic cells and of inducing apoptosis of virally-infected cells” (Cornell Research Foundation, Inc., priority 1995, dated 1998).
Entries after “also recorded” stand apart in the source; their conditions may differ.

Experiments:
[1] = tested on: HIV-1 infected ACH-2 cells; assay: Cell membrane integrity (trypan blue exclusion, retention of labeled eIF-5A), HIV-1 infected cells; assay type: cell-based, human; conditions: during 18-21 h incubation and 2-4 hours after withdrawal, FIGS. 12A and B
Method: FIGS. 12A and B show the loss of cell membrane integrity suffered by HIV-1 producing ACH-2 cells and their uninfected parent cell line CEM during incubation with and after withdrawal of mimosine and HK-1. The black bar indicates the duration of inhibitor exposure, the open bar the duration of inhibitor withdrawal. Cell membrane integrity was determined by the ability of the cells to exclude the low-molecular weight dye trypan blue (FIGS. 12A and B) and to retain the spermidine-derived radioactive label of a single, obligatory intracellular protein species, eIF-5A and its deoxyhypusyl precursor (FIG. 12A).
ACH-2 cells were incubated with hypusine inhibitors (mimosine, HK-1) and induced with PMA as outlined in Example II A, except that the duration of exposure to inhibitor was extended to 18-21 hours and that cells were labeled as detailed in Example I B. Half of the cells were then harvested and processed for detection of apoptosis, while the other half was washed free of inhibitors and re-incubated in fresh medium for 2-4 hours, followed by harvesting and processing for detection of […] apoptosis. Using the same protocol, cultures of the parent CEM cell line were incubated in parallel. […]

HIV-1 RNA = assay: Splicing analysis (Northern blot) of HIV-1 RNA in PMA-induced ACH-2 cells; assay type: cell-based; conditions: 200 μM, FIG. 7
Description: At about 9-kb is the position of unspliced viral MRNA species representing the infectious viral genome and encoding key structural proteins for core and capsid. At about 4-kb is the position of incompletely spliced viral MRNA species encoding structural and regulatory proteins. At about 2-kb is the position of completely spliced viral MRNA species encoding regulatory proteins, such as Rev. […] Lane B is for the high level expression of HIV-1 RNA after induction with PMA; note the presence of the 9-kb species.
ACH-2 cells were incubated with hypusine inhibitors (mimosine, HK-1) and induced with PMA as outlined in Example II A. From control cells, from cells induced with PMA, and from PMA-induced cells treated with 200 μM mimosine/HK-1, in each case aliqouts of 1.2×10^7 cells, the total cellular RNA was isolated by the guanidinium isothiocyanate-cesium chloride method [Chirgwin et al., Biochemistrv 18, 5294-5299 (1979), which is hereby incorporated by reference]. Equal quantities of RNA from each cell sample were electrophoresed on a 1% agarose-formaldehyde gel, transferred to nitrocellulose, and hybridized with randomly primed, ^32 P-dCTP-labeled genomic HIV-1 probe pBH10 [Ratner et al., Nature 313, 277-284 (1985), which is hereby incorporated by reference]. Following hybridization, the blots were washed extensively, dried, and autoradiographed. […]

Deoxyhypusyl hydroxylase = biological target: T1, Deoxyhypusyl hydroxylase (Homo sapiens, UniProt Q9BU89); assay: Cellular deoxyhypusyl hydroxylase (hypusine formation) inhibition, human B-cells and human smooth muscle cells; assay type: cell-based; conditions: for Deoxyhypusyl hydroxylase ID50 (cellular): concentration for half-maximal inhibition
T1 construct: endogenous in cells
T1 sequence (Q9BU89 1-302): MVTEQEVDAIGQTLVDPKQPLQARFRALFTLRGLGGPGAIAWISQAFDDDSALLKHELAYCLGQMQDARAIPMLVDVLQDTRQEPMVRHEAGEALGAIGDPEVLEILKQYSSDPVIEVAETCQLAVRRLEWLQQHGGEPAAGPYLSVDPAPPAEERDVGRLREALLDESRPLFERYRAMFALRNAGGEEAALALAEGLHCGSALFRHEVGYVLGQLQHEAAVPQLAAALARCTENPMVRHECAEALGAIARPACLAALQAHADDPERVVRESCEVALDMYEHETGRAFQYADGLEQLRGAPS
Method: The cell-free enzyme assay was performed to test a pilot peptidomimetic which can be equipped with hydroxypyridone warheads. The cell culture studies were performed to establish the inherent inhibitory potency of such hydroxypyridones.
(§1) DOHH Assay. The intracellular conversion of peptide-bound deoxyhypusine to peptidyl hypusine was determined after preincubation of human T lymphocyte-derived cells (i.e. ACH-2) [Clouse et al., J. Immunol. 142, 431-438 (1989), which is hereby incorporated by reference] with the hypusine inhibitors mimosine and HK-1 for 60 minutes, followed by labeling for 21 hours with ^3 H-spermidine (3.75 μCi/ml) in wells containing 3×10^6 cells suspended in 8 ml of serum-supplemented and antibiotic-containing RPMI 1640 medium. Cells were then split into two groups, one of them being harvested immediately to assess degree of DOHH inhibition, and the other harvested after transfer of the cells into inhibitor-free medium for 2 hours to measure resumption of DOHH activity. Harvesting consisted in precipitation of washed cells with 10% TCA containing 1 mM each of putrescine, spermidine, and spermine. Cellular proteins from each sample were then hydrolyzed in 6N HCl at 110° C. for 16 hours. The hydrolysate was analyzed for labeled amino acids on an amino acid analyzer by published methods [Park et al., J. Biol. Chem., 257, 7217-7222 (1982), which is hereby incorporated by reference]. The retention times of hypusine and deoxyhypusine were determined from standards. Similar studies were performed in human B-cells and human smooth muscle cells.
The concentration required for half-maximal inhibition (ID50) of the cellular enzyme activity is identified for each compound.

[2] = biological target: T2, deoxyhypusyl hydroxylase (DOHH) in human T-cell line ACH-2 (Homo sapiens, UniProt Q9BU89); assay: Deoxyhypusine-to-hypusine conversion by DOHH in ACH-2 cells; assay type: cell-based; conditions: for activity at 200 µM: ACH-2, 22 h, 22 hours, ACH-2 cells, FIG. 5, remaining conversion; for resumption of conversion after inhibitor removal: within 2 hours of inhibitor removal, after 200 μM, ACH-2
T2 construct: endogenous in cells; host or cells: ACH-2 (human T-cell line, subclone of the A3.01 variant of CEM)
T2 sequence (Q9BU89 1-302): T1 sequence (Q9BU89 1-302)
Method: as §1

[3] = tested on: uninfected parent cell line CEM; assay: Flow cytometry of genomic DNA 3'-ends (apoptosis), uninfected parent cells; assay type: cell-based, human; conditions: for genomic DNA 3'-ends, CEM: 200 μM, 18 hours, FIG. 13
Method: FIGS. 13A-F show the flowcytometrically determined distribution of the number of fluorescently labeled 3'-ends in the genomic DNA of HIV-1 producing ACH-2 cells ("ACH-2") and their uninfected parent cell line CEM ("CEM"), both receiving no treatment ("NT") or treatment for 18 hours with either 200 μM mimosine ("MIM") or 200 μM HK-1 ("HK1"). […] This is the hallmark of irreversible auto-destruction of a cell's genetic library.
FIGS. 14A-H show the flowcytometrically determined distribution of the number of fluorescently labeled 3'-ends in the genomic DNA of HIV-1 producing ACH-2 cells ("ACH-2") and of their uninfected parent cell line CEM ("CEM"), both receiving no treatment ("NT") or treatment for 18 hours with 200 μM mimosine ("MIM"), followed by inhibitor withdrawal and reincubation in fresh medium for 2 hours.
ACH-2 cells were incubated with hypusine inhibitors (mimosine, HK-1) and induced with PMA as outlined in Example II A, except that the duration of exposure to inhibitor was extended to 18-21 hours and that cells were labeled as detailed in Example I B. Half of the cells were then harvested and processed for detection of apoptosis, while the other half was washed free of inhibitors and re-incubated in fresh medium for 2-4 hours, followed by harvesting and processing for detection of […] apoptosis. Using the same protocol, cultures of the parent CEM cell line were incubated in parallel. For assessment of apoptosis, cell viability was measured by exclusion of the dye trypan blue, by retention of the ^3 H-spermidine-derived intracellular radioactivity incorporated into the obligatory intracellular protein eIF-5A, and by direct fluorescence detection of the intemucleosomal degradation of genomic DNA. Such irreversible genome degradation signals the activation of pre-programmed suicide mechanisms within any cell, which is the hallmark of apoptosis, and inescapably results in cell death [Compton, Cancer Metast. 11, 105-119 (1992), which is hereby incorporated by reference]. For the latter method, a commercially available kit was used (Oncor, Gaithersburg, Md.). […]

SMILES | cell membrane integrity, HIV-1 producing ACH-2 [1] | HIV-1 RNA splicing pattern (HIV-1 RNA) | Deoxyhypusyl hydroxylase ID50 (cellular) (Deoxyhypusyl hydroxylase) | activity at 200 µM [2] [%] | resumption of conversion after inhibitor removal [2] | genomic DNA 3'-ends, CEM [3] | inhibition of deoxyhypusyl hydroxylase activity, i.e. hypusine formation (Deoxyhypusyl hydroxylase) | average fluorescence peak after incubation and withdrawal, CEM ([3]; 200 μM 18 hours, then 2 hours withdrawal, FIG. 14)
Cc1c(O)c(=O)ccn1C [HK-1, 1,2-dimethyl-3-hydroxypyrid-4-one] | the most marked, uniform and rapid decline of membrane integrity developed 2-4 hours after inhibitor withdrawal | apparent lack of 9-kb and 4-kb species | 90 | ≤ 10 | almost tripled; also recorded: recovers readily and triples within the first 2 hours of inhibitor removal | did not affect the position of this peak in uninfected CEM cells; also recorded: Only the virally-infected ACH-2, but not the parent CEM cells reacted to the inhibitors | – | –
N[C@@H](Cn1ccc(=O)c(O)c1)C(=O)O [L-Mimosine] | the most marked, uniform and rapid decline of membrane integrity developed 2-4 hours after inhibitor withdrawal | apparent lack of the 9-kb species | 65 | ≤ 10 | almost tripled; also recorded: recovers readily and triples within the first 2 hours of inhibitor removal | did not affect the position of this peak in uninfected CEM cells; also recorded: Only the virally-infected ACH-2, but not the parent CEM cells reacted to the inhibitors | efficiently inhibit deoxyhypusyl hydroxylase activity | the position and shape of the average fluorescence peak in CEM cells did not change; also recorded: Only the virally infected ACH-2, but not the parent CEM cells reacted to the inhibitor
